Laboratory results from patent US10017533B2, “Cytotoxic titanium and vanadium complexes” (YISSUM RESEARCH DEVELOPMENT COMPANY OF THE HEBREW …, priority 2012, dated 2018).

Legend:
OVCAR-3 = test: MTT cytotoxicity assay on OVCAR-3 cells; assay type: cell-based; conditions: administered without formulations, three days incubation
Experimental: (§1) Cytotoxicity was measured on HT-29 colon and OVCAR ovarian cells obtained from ATCC Inc. using the methylthiazolyldiphenyl-tetrazolium bromide (MTT) assay. Cells (0.6×106) in medium (contains: 1% penicillin/streptomycin antibiotics; 1% L-glutamine; 10% fetal bovine serum (FBS) and 88% medium RPMI-1640, all purchased from Biological Industries Inc.) were seeded into a 96-well plate and allowed to attach for a day. The cells were consequently treated with the reagent tested at 10 different concentrations. Solutions/dispersions of the reagents were prepared either by dissolving 8 mg of the nonformulated reagent in 200 μL of THF or by dispersing 8 mg of formulated reagent in 200 μL of medium, with further diluting to obtain the different concentrations. A total of 20 μL of the resulting system were diluted with 180 μL of medium. Consequently, 10 μL of each final system were added to each well already containing 200 μL of the above solution of cells in the medium to give final concentration of up to 200 mg/L. Control wells were treated with similar amounts of THF or medium. After a standard of 3 days incubation at 37° C. in 5% CO2 atmosphere, MTT (0.1 mg in 20 μL) was added and the cells were incubated for additional 3 hours. The MTT solution was then removed, and the cells were dissolved in 200 μL isopropanol. The absorbance at 550 nm was measured by a Bio-Tek EL-800 microplate reader spectrophotometer. Each measurement was repeated at least 3×3 times, namely, three repeats per plate, all repeated at least 3 times on different days (9 repeats altogether). IC50 values were determined by a non-linear regression of a variable slope (four parameters) model.

HT-29 cancer cells = test: MTT cytotoxicity assay on HT-29 colon cells; assay type: cell-based, human; conditions: for IC50 / maximal inhibition HT-29: three days incubation
Experimental: as §1

OVCAR cancer cells = test: MTT cytotoxicity assay on OVCAR ovarian cells; assay type: cell-based
Experimental: as §1, with “After a standard of 3 days incubation at 37° C. in 5% CO2 atmosphere, MTT (0.1 mg in 20 μL) was added and the cells were incubated for additional 3 hours. The MTT solution was then removed, and the cells were dissolved in 200 μL isopropanol.” left out, “Each measurement was repeated at least 3×3 times, namely, three repeats per plate, all repeated at least 3 times on different days (9 repeats altogether).” left out

[1] = Particle size by dynamic light scattering; assay type: physicochemical; conditions: nanoformulated complex, 0.2 wt % dispersion in water
Experimental: The dry powder obtained at the end of the freeze-drying process was dispersed at 0.2% in distilled water. The sample was manually shaken for 15 seconds. Particle size distribution by volume was measured at room temperature by dynamic light scattering using a Nano-ZS Zetasizer (Malvern, UK). A 633 nm wavelength laser beam was used to illuminate the sample and the light scattering was detected at 173° angle by the Non-Invasive Back-Scatter (NIBS) technology. The advantages of the backscatter detection are: (a) Ability to measure particle size at high concentration; (b) Elimination of dust and impurity effect. Size measurements of the dispersion were performed in triplicate.

[2] = tested on: multi-drug-resistant (MDR) cells HU-2; test: Cytotoxicity toward multi-drug-resistant HU-2 cells; assay type: cell-based; conditions: nanoformulated complex
[3] = Hydrolysis measurements by 1H NMR / stability in water; assay type: physicochemical; conditions: 10% D2O added to [D8]THF solution
Experimental: Comparative hydrolysis measurements by ^1H NMR were carried by monitoring the integration of selected signals with time following addition of 10% D2O to [D8]THF solution of the complexes. The t1/2 value for isopropoxo hydrolysis for compound 4 was ca. 100 hours, markedly higher than the value previously reported for analogous complexes of two labile ligands obtained under similar conditions (ca. 5 hours).
NMR data were recorded using AMX-400 or AMX-500 MHz Bruker spectrometer. X-ray diffraction data were obtained with a Bruker SMART APEX CCD diffractometer, running the SMART software package. After collection, the raw data frames were integrated by the SAINT software package. The structures were solved and refined using the SHELXTL software package. Hydrolysis studies by NMR were performed using a solution of the complex in [D^8]THF and adding 10% D2O. The results were verified by including p-dinitrobenzene as an internal standard.

[4] = administered without formulations

Row | Structure (SMILES) | IC50 (OVCAR-3) [µM] | maximal inhibition OVCAR-3 (OVCAR-3) [%] | IC50 (HT-29 cancer cells; [4]) [µM] | maximal inhibition HT-29 (HT-29 cancer cells; [4]) [%] | IC50 (OVCAR cancer cells; nanoformulated complex, three days incubation) [µM] | cytotoxicity when measured directly on OVCAR-1 (OVCAR cancer cells; non-formulated, OVCAR-1 cells as printed) | Mean particle size [1] [nm] | IC50 [2] [µM] | IC50 (HT-29 cancer cells; nanoformulated complex) [µM] | cytotoxicity when measured/administered directly on HT-29 (HT-29 cancer cells; non-formulated) | hydrolysis observed by 1H NMR [3]
1 | N.N.[Cl][Pt][Cl] [Cis-platin, reference compound] | 8.8 ± 2.1 | 91 | 12.2 ± 2.3 | 90 |  |  |  |  |  |  | 
2 | Clc1cc(Cl)c2c(c1)CN1CCN3Cc4cc(Cl)cc(Cl)c4[O][Ti]([O]2)([O]c2c(Cl)cc(Cl)cc2C1)[O]c1c(Cl)cc(Cl)cc1C3 [compound 3] |  |  |  |  | 14 ± 4 | inactive | 5.3 ± 0.3 | 0.8 ± 1 | 12 ± 2 | inactive | no substantial hydrolysis was observed for over a week
3 | [O]=[V]12[O]c3ccccc3CNCCN(Cc3ccccc3[O]1)Cc1ccccc1[O]2 [compound 5] | 0.3 ± 0.1 | 88 | 1.9 ± 0.6 | 97 |  |  |  |  |  |  | 
4 | Cc1ccc2c(c1)CNCCN1Cc3cc(C)ccc3[O][V](=[O])([O]2)[O]c2ccc(C)cc2C1 [compound 6] | 0.3 ± 0.1 | 90 | 2.5 ± 0.7 | 98 |  |  |  |  |  |  | 
5 | [O]=[V]12[O]c3ccc(Cl)cc3CNCCN(Cc3cc(Cl)ccc3[O]1)Cc1cc(Cl)ccc1[O]2 [compound 7] |  |  | 3.2 | 95 |  |  |  |  |  |  | 
6 | COc1ccc2c(c1)CNCCN1Cc3cc(OC)ccc3[O][V](=[O])([O]2)[O]c2ccc(OC)cc2C1 [compound 8] | 0.6 ± 0.2 | 85 | 0.7 ± 0.1 | 94 |  |  |  |  |  |  | 
7 | CC(C)(C)Oc1ccc2c(c1)CNCCN1Cc3cc(OC(C)(C)C)ccc3[O][V](=[O])([O]2)[O]c2ccc(OC(C)(C)C)cc2C1 [compound 9] | 1.3 | 84 | 2 ± 0.4 | 99 |  |  |  |  |  |  | 
8 | Cc1cc(C)c2c(c1)CN1Cc3cc(C)cc(C)c3[O][V](=[O])([O]2)[O]c2c(C)cc(C)cc2C1 [compound 50] | 2.8 ± 0.5 | 87 | 4.6 ± 0.8 | 96 |  |  |  |  |  |  | 
9 | [O]=[V]1[O]c2ccccc2CNCCNCc2ccccc2[O]1 [compound 63] | 4.3 ± 1.4 | 87 | 5.8 ± 0.3 | 97 |  |  |  |  |  |  | 
